From US10946074B2, “GLP-1 derivatives and uses thereof” (Novo Nordisk A/S, priority 2016, dated 2021)
Starred links: 1 amine or outer side, 2 acyl side, 3 side chain; linkers in the order of their positions; H or OH if unused. Residues, ends and D or L forms follow the SMILES beside them. Groups on a side chain read outwards from the residue. *: point of attachment. Undecanoyl(11-OPh(4-COOH)) = O=C(O)c1ccc(OCCCCCCCCCCC(=O)*)cc1; Decanoyl(10-O(3-COOH-Ph)) = O=C(O)c1cccc(OCCCCCCCCCC(=O)*)c1; γGlu = O=C(O)[C@H](CCC(=O)[*:2])N[*:1]; AEEA = NCCOCCOCC(=O)O

The compounds below were run against T1, human GLP-1 receptor (Homo sapiens, UniProt P43220) (assay: GLP-1 receptor binding, competitive binding assay with 125I-GLP-1 on isolated membranes (SPA)). Conditions: GLP-1 receptor binding High HSA IC50 (nM), high HSA (2.0% (w/v) final assay concentration).
T1 construct: expressed in transfected cells; host or cells: membranes of BHK cells (parent BHKTS13), clone FCW467-12A
T1 sequence (P43220 24-463): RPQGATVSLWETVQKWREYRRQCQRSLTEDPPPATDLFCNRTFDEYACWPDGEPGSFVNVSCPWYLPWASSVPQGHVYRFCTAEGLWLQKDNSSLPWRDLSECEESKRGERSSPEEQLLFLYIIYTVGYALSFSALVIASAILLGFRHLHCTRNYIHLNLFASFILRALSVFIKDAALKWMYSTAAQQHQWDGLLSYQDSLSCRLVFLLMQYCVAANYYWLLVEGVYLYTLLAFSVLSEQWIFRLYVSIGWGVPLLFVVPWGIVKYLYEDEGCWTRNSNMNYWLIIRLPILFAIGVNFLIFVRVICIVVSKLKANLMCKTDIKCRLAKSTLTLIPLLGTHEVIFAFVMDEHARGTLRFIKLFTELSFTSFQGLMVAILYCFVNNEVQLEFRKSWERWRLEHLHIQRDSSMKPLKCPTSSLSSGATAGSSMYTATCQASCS
Experimental: The receptor binding is reported as the concentration at which half of the labelled ligand is displaced from the receptor, the IC50 value.
Buffer 1 consisted of 20 mM Na-HEPES plus 10 mM EDTA and pH was adjusted to 7.4. Buffer 2 consisted of 20 mM Na-HEPES plus 0.1 mM EDTA and pH was adjusted to 7.4. Assay buffer consisted of 50 mM HEPES supplemented with 5 mM EGTA, 5 mM MgCl2, 0.005% w/v Tween 20 and pH was adjusted to 7.4. An 8% albumin stock consisted of HSA dissolved at 8% (w/v) in assay buffer. An 0.02% albumin stock consisted of HSA dissolved at 0.02% (w/v) in assay buffer.
To make a membrane preparation the cells were grown to approximately 80% confluence. The cells were washed twice in phosphate-buffered saline and harvested. The cells were pelleted using a brief centrifugation and the cell pellet was kept on ice. The cell pellet was homogenised with ULTRA-THURRAX™ dispersing instrument for 20-30 seconds in a suitable amount of buffer 1 (e.g., 10 ml). The homogenate was centrifuged for 15 minutes. The pellet was re-suspended (homogenised) in 10 ml buffer 2 and centrifuged. This step was repeated once more. The resulting pellet was re-suspended in buffer 2 and the protein concentration was determined. The membranes were aliquoted and stored at minus 80° C.
For the receptor binding assay in the presence of low HSA (0.005% (w/v)) 50 μl of the assay buffer was added to each well of an assay plate. Assay continued with step 3.
For the receptor binding assay in the presence of high HSA (2% (w/v)) 50 μl of the 8% (w/v) albumin stock was added to each well of an assay plate. Assay continued with step 3.
Cell membrane aliquots were thawed and diluted to their working concentration. Fifty μl were added to each well in the assay plate.
WGA SPA beads were suspended in assay buffer at 20 mg/ml. The suspension was diluted to 10 mg/ml in assay buffer just prior to addition to the assay plate. Fifty μl were added to each well in the assay plate.
A 25 μl aliquot was reserved for measuring total counts/well.
The assay plate was incubated for 2 h at 30° C.
The assay plate was centrifuged for 10 min.
The assay plate was read in a Packard TopCount NXT instrument.
Individual replicates were analysed using non-linear regression in GraphPad Prism. IC50 values were calculated by the software and reported in nM. A minimum of two replicates was measured for each sample. The reported values are averages of all of the measured values for each compound.

Row | SMILES | IC50 [nM]
1 | CC[C@H](C)[C@H](NC(=O)[C@H](Cc1ccccc1)NC(=O)[C@H](CCC(=O)O)NC(=O)[C@H](CCCNC(=N)N)NC(=O)[C@H](C)NC(=O)[C@H](C)NC(=O)[C@H](CCC(N)=O)NC(=O)[C@H](CCC(=O)O)NC(=O)[C@H](CCC(=O)O)NC(=O)[C@H](CC(C)C)NC(=O)[C@H](Cc1ccc(O)cc1)NC(=O)[C@H](CO)NC(=O)[C@H](CO)NC(=O)[C@@H](NC(=O)[C@H](CC(=O)O)NC(=O)[C@H](CO)NC(=O)[C@@H](NC(=O)[C@H](Cc1ccccc1)NC(=O)[C@@H](NC(=O)CNC(=O)[C@H](CCC(=O)O)NC(=O)[C@H](Cc1c[nH]c2ccccc12)NC(=O)[C@@H](N)Cc1c[nH]cn1)[C@@H](C)O)[C@@H](C)O)C(C)C)C(=O)N[C@@H](C)C(=O)N[C@@H](Cc1c[nH]c2ccccc12)C(=O)N[C@@H](CC(C)C)C(=O)N[C@H](C(=O)N[C@@H](CCCNC(=N)N)C(=O)NCC(=O)N[C@@H](CCCCNC(=O)COCCOCCNC(=O)COCCOCCNC(=O)CC[C@H](NC(=O)CCCCCCCCCOc1cccc(C(=O)O)c1)C(=O)O)C(=O)N[C@@H](CCCCNC(=O)COCCOCCNC(=O)COCCOCCNC(=O)CC[C@H](NC(=O)CCCCCCCCCOc1cccc(C(=O)O)c1)C(=O)O)C(=O)O)C(C)C [Example 1, N{Epsilon-36}-[2-[2-[2-[[2-[2-[2-[[(4S)-4-carboxy-4-[10-(3-carboxyphenoxy)decanoylamino]butanoyl]amino]ethoxy]ethoxy]acetyl]amino]ethoxy]ethoxy]acetyl],N{Epsilon-37}-[2-[2-[2-[[2-[2-[2-[[(4S)-4-carboxy-4-[10-(3-carboxyphenoxy)decanoylamino]butanoyl]amino]ethoxy]ethoxy]acetyl]amino]ethoxy]ethoxy]acetyl]-[Trp8,Glu22,Arg26,Arg34,Lys36,Lys37]-GLP-1-(7-37)-peptide] (H-HWEGTFTSDVSSYLEEQAAREFIAWLVRGK([AEEA-AEEA-γGlu-Decanoyl(10-O(3-COOH-Ph))])K([AEEA-AEEA-γGlu-Decanoyl(10-O(3-COOH-Ph))])-OH) | 410
2 | CC[C@H](C)[C@H](NC(=O)[C@H](Cc1ccccc1)NC(=O)[C@H](CCC(=O)O)NC(=O)[C@H](CCCNC(=N)N)NC(=O)[C@H](C)NC(=O)[C@H](C)NC(=O)[C@H](CCC(N)=O)NC(=O)[C@H](CCC(=O)O)NC(=O)[C@H](CCC(=O)O)NC(=O)[C@H](CC(C)C)NC(=O)[C@H](Cc1ccc(O)cc1)NC(=O)[C@H](CO)NC(=O)[C@H](CO)NC(=O)[C@@H](NC(=O)[C@H](CC(=O)O)NC(=O)[C@H](CO)NC(=O)[C@@H](NC(=O)[C@H](Cc1ccccc1)NC(=O)[C@@H](NC(=O)CNC(=O)[C@H](CCC(=O)O)NC(=O)C(C)(C)NC(=O)[C@@H](N)Cc1c[nH]cn1)[C@@H](C)O)[C@@H](C)O)C(C)C)C(=O)N[C@@H](C)C(=O)N[C@@H](Cc1c[nH]c2ccccc12)C(=O)N[C@@H](CC(C)C)C(=O)N[C@H](C(=O)N[C@@H](CCCNC(=N)N)C(=O)NCC(=O)N[C@@H](CCCCNC(=O)COCCOCCNC(=O)COCCOCCNC(=O)CC[C@H](NC(=O)CCCCCCCCCCOc1ccc(C(=O)O)cc1)C(=O)O)C(=O)N[C@@H](CCCCNC(=O)COCCOCCNC(=O)COCCOCCNC(=O)CC[C@H](NC(=O)CCCCCCCCCCOc1ccc(C(=O)O)cc1)C(=O)O)C(=O)O)C(C)C [Comparative 8A] | 110
3 | CC[C@H](C)[C@H](NC(=O)[C@H](Cc1ccccc1)NC(=O)[C@H](CCC(=O)O)NC(=O)[C@H](CCCNC(=N)N)NC(=O)[C@H](C)NC(=O)[C@H](C)NC(=O)[C@H](CCC(N)=O)NC(=O)[C@H](CCC(=O)O)NC(=O)[C@H](CCC(=O)O)NC(=O)[C@H](CC(C)C)NC(=O)[C@H](Cc1ccc(O)cc1)NC(=O)[C@H](CO)NC(=O)[C@H](CO)NC(=O)[C@@H](NC(=O)[C@H](CC(=O)O)NC(=O)[C@H](CO)NC(=O)[C@@H](NC(=O)[C@H](Cc1ccccc1)NC(=O)[C@@H](NC(=O)CNC(=O)[C@H](CCC(=O)O)NC(=O)[C@H](Cc1c[nH]c2ccccc12)NC(=O)[C@@H](N)Cc1c[nH]cn1)[C@@H](C)O)[C@@H](C)O)C(C)C)C(=O)N[C@@H](C)C(=O)N[C@@H](Cc1c[nH]c2ccccc12)C(=O)N[C@@H](CC(C)C)C(=O)N[C@H](C(=O)N[C@@H](CCCNC(=N)N)C(=O)NCC(=O)N[C@@H](CCCCNC(=O)COCCOCCNC(=O)COCCOCCNC(=O)CC[C@H](NC(=O)CCCCCCCCCCOc1ccc(C(=O)O)cc1)C(=O)O)C(=O)N[C@@H](CCCCNC(=O)COCCOCCNC(=O)COCCOCCNC(=O)CC[C@H](NC(=O)CCCCCCCCCCOc1ccc(C(=O)O)cc1)C(=O)O)C(=O)O)C(C)C [Example 8, N{Epsilon-36}-[2-[2-[2-[[2-[2-[2-[[(4S)-4-carboxy-4-[11-(4-carboxyphenoxy)undecanoylamino]butanoyl]amino]ethoxy]ethoxy]acetyl]amino]ethoxy]ethoxy]acetyl],N{Epsilon-37}-[2-[2-[2-[[2-[2-[2-[[(4S)-4-carboxy-4-[11-(4-carboxyphenoxy)undecanoylamino]butanoyl]amino]ethoxy]ethoxy]acetyl]amino]ethoxy]ethoxy]acetyl]-[Trp8,Glu22,Arg26,Arg34,Lys36,Lys37]-GLP-1-(7-37)-peptide] (H-HWEGTFTSDVSSYLEEQAAREFIAWLVRGK([AEEA-AEEA-γGlu-Undecanoyl(11-OPh(4-COOH))])K([AEEA-AEEA-γGlu-Undecanoyl(11-OPh(4-COOH))])-OH; N-terminus and C-terminus assumed) | 170

Same assay, conditions: GLP-1 receptor binding Low HSA IC50 (nM), low HSA (max. 0.001% (w/v) final assay concentration)

Row | SMILES | IC50 [nM]
4 | CC[C@H](C)[C@H](NC(=O)[C@H](Cc1ccccc1)NC(=O)[C@H](CCC(=O)O)NC(=O)[C@H](CCCNC(=N)N)NC(=O)[C@H](C)NC(=O)[C@H](C)NC(=O)[C@H](CCC(N)=O)NC(=O)[C@H](CCC(=O)O)NC(=O)[C@H](CCC(=O)O)NC(=O)[C@H](CC(C)C)NC(=O)[C@H](Cc1ccc(O)cc1)NC(=O)[C@H](CO)NC(=O)[C@H](CO)NC(=O)[C@@H](NC(=O)[C@H](CC(=O)O)NC(=O)[C@H](CO)NC(=O)[C@@H](NC(=O)[C@H](Cc1ccccc1)NC(=O)[C@@H](NC(=O)CNC(=O)[C@H](CCC(=O)O)NC(=O)[C@H](Cc1c[nH]c2ccccc12)NC(=O)[C@@H](N)Cc1c[nH]cn1)[C@@H](C)O)[C@@H](C)O)C(C)C)C(=O)N[C@@H](C)C(=O)N[C@@H](Cc1c[nH]c2ccccc12)C(=O)N[C@@H](CC(C)C)C(=O)N[C@H](C(=O)N[C@@H](CCCNC(=N)N)C(=O)NCC(=O)N[C@@H](CCCNC(=N)N)C(=O)N[C@@H](CCCCNC(=O)COCCOCCNC(=O)COCCOCCNC(=O)CN(CCCNC(=O)COCCOCCNC(=O)COCCOCCNC(=O)COCCOCCNC(=O)COCCOCCNC(=O)CC[C@H](NC(=O)[C@H]1CC[C@H](CNC(=O)CCCCCCCCCCCCCCCCCCC(=O)O)CC1)C(=O)O)CCCNC(=O)COCCOCCNC(=O)COCCOCCNC(=O)COCCOCCNC(=O)COCCOCCNC(=O)CC[C@H](NC(=O)[C@H]1CC[C@H](CNC(=O)CCCCCCCCCCCCCCCCCCC(=O)O)CC1)C(=O)O)C(=O)O)C(C)C [Example 13] | 0.818
5 | CC[C@H](C)[C@H](NC(=O)[C@H](Cc1ccccc1)NC(=O)[C@H](CCC(=O)O)NC(=O)[C@H](CCCNC(=N)N)NC(=O)[C@H](C)NC(=O)[C@H](C)NC(=O)[C@H](CCC(N)=O)NC(=O)[C@H](CCC(=O)O)NC(=O)[C@H](CCC(=O)O)NC(=O)[C@H](CC(C)C)NC(=O)[C@H](Cc1ccc(O)cc1)NC(=O)[C@H](CO)NC(=O)[C@H](CO)NC(=O)[C@@H](NC(=O)[C@H](CC(=O)O)NC(=O)[C@H](CO)NC(=O)[C@@H](NC(=O)[C@H](Cc1ccccc1)NC(=O)[C@@H](NC(=O)CNC(=O)[C@H](CCC(=O)O)NC(=O)C(C)(C)NC(=O)[C@@H](N)Cc1c[nH]cn1)[C@@H](C)O)[C@@H](C)O)C(C)C)C(=O)N[C@@H](C)C(=O)N[C@@H](Cc1c[nH]c2ccccc12)C(=O)N[C@@H](CC(C)C)C(=O)N[C@H](C(=O)N[C@@H](CCCNC(=N)N)C(=O)NCC(=O)N[C@@H](CCCCNC(=O)COCCOCCNC(=O)COCCOCCNC(=O)CC[C@H](NC(=O)CCCCCCCCCCOc1ccc(C(=O)O)cc1)C(=O)O)C(=O)N[C@@H](CCCCNC(=O)COCCOCCNC(=O)COCCOCCNC(=O)CC[C@H](NC(=O)CCCCCCCCCCOc1ccc(C(=O)O)cc1)C(=O)O)C(=O)O)C(C)C [Comparative 8A] | 0.245
6 | CC[C@H](C)[C@H](NC(=O)[C@H](Cc1ccccc1)NC(=O)[C@H](CCC(=O)O)NC(=O)[C@H](CCCNC(=N)N)NC(=O)[C@H](C)NC(=O)[C@H](C)NC(=O)[C@H](CCC(N)=O)NC(=O)[C@H](CCC(=O)O)NC(=O)[C@H](CCC(=O)O)NC(=O)[C@H](CC(C)C)NC(=O)[C@H](Cc1ccc(O)cc1)NC(=O)[C@H](CO)NC(=O)[C@H](CO)NC(=O)[C@@H](NC(=O)[C@H](CC(=O)O)NC(=O)[C@H](CO)NC(=O)[C@@H](NC(=O)[C@H](Cc1ccccc1)NC(=O)[C@@H](NC(=O)CNC(=O)[C@H](CCC(=O)O)NC(=O)[C@H](Cc1c[nH]c2ccccc12)NC(=O)[C@@H](N)Cc1c[nH]cn1)[C@@H](C)O)[C@@H](C)O)C(C)C)C(=O)N[C@@H](C)C(=O)N[C@@H](Cc1c[nH]c2ccccc12)C(=O)N[C@@H](CC(C)C)C(=O)N[C@H](C(=O)N[C@@H](CCCNC(=N)N)C(=O)NCC(=O)N[C@@H](CCCNC(=N)N)C(=O)N[C@@H](CCCCNC(=O)COCCOCCNC(=O)COCCOCCNC(=O)[C@H](CCCCNC(=O)COCCOCCNC(=O)COCCOCCNC(=O)COCCOCCNC(=O)COCCOCCNC(=O)CC[C@H](NC(=O)[C@H]1CC[C@H](CNC(=O)CCCCCCCCCCCCCCCCCCC(=O)O)CC1)C(=O)O)NC(=O)COCCOCCNC(=O)COCCOCCNC(=O)COCCOCCNC(=O)COCCOCCNC(=O)CC[C@H](NC(=O)[C@H]1CC[C@H](CNC(=O)CCCCCCCCCCCCCCCCCCC(=O)O)CC1)C(=O)O)C(=O)O)C(C)C [Example 12] | 3.16
